Assay results as given in patent US8901138B2, “Sulfoximine substituted quinazolines for pharmaceutical compositions” (Boehringer Ingelheim International GmbH, priority 2012, dated 2014).
pIC50: −log10 of the molar value.

target: T1, MNK2a (Homo sapiens, UniProt Q9HBH9); experiment: MNK2a in vitro kinase assay (assay 1), ADP-Glo; assay type: biochemical; conditions: preactivated GST-MNK2a, 20 μM ATP, read-out: MNK2 IC50
T1 construct: made in house
Experimental: A. MNK2a In Vitro Kinase Assay (Assay 1)
ASSAY SETUP: The inhibition of kinase activity of MNK2a was assessed using preactivated GST-MNK2a. The white, 384-well OptiPlate F plates were purchased from Perkin Elmer. The ADP-Glo Kinase Assay (including ultra pure ATP) was purchased from Promega (V9103). Activated MNK2a was obtained as described in WO2011/104340. The unlabeled eIF4E peptide (NH2-[…]—CONH2) (SEQ ID NO: 1), differing from Seq. ID No. 5 of WO 2011/104340 by the C-terminal —CONH2 group, was purchased from Thermo Fisher Scientific. All other materials were of highest grade commercially available. Compounds are tested in either serial dilutions or single dose concentrations. The compound stock solutions are 10 mM in 100% DMSO The serial compound dilutions are prepared in 100% DMSO followed by 1:27.3 intermediate dilution in assay buffer. The final DMSO concentration in assay will be <3%. In the 384-well plates 3 μl of test compound from the intermediate dilution is mixed with 4 μl of the activated MNK2 enzyme (final concentration of 10 nM) and 4 μl of the peptide (final concentration of 25 μM)/ultra pure ATP (final concentration of 20 μM), all dissolved in assay buffer. This step is followed by an incubation time of 90 min, then 10 μl of ADP Glo reagent are added, followed by 40 min of incubation. Then 20 μl of kinase detection reagent are admixed. The plates are sealed and after an incubation period of 30 min, the luminescence signal is measured in an Envision reader to determine the amount of produced ADP. All incubation steps are performed at room temperature. The assay buffer consists of 20 mM HEPES, 2 mM DTT, 0.01% BSA, 20 mM MgCl2 and 0.1% Pluronic F-127.
Each assay microtiter plate contains wells with vehicle controls instead of compound (1% DMSO in water) as reference for the high signal (100% CTL, high signal), and wells containing a potent MNK2 inhibitor (final 20 μM, 1% DMSO) as reference for low signal (0% CTL, low signal).
The luminescent signal generated is proportional to the ADP concentration produced and is correlated with activated MNK2 activity. The analysis of the data is performed by the calculation of the percentage of ATP consumption of activated MNK2 in the presence of the test compound compared to the consumption of ATP in the presence of activated MNK2 without compound. (RLU(sample)−RLU(low control))*100/(RLU(high value)−RLU(low control)) [RLU=relative luminescence units]
An inhibitor of the MNK2 enzyme will give values between 100% CTL (no inhibition) and 0% CTL (complete inhibition). Values of more than 100% CTL are normally related to compound/sample specific physico-chemical properties (e.g. solubility, light absorbance, fluorescence).
IC50 values based on dose response curves are calculated with the AssayExplorer software.

T1 sequence (Q9HBH9 whole entry): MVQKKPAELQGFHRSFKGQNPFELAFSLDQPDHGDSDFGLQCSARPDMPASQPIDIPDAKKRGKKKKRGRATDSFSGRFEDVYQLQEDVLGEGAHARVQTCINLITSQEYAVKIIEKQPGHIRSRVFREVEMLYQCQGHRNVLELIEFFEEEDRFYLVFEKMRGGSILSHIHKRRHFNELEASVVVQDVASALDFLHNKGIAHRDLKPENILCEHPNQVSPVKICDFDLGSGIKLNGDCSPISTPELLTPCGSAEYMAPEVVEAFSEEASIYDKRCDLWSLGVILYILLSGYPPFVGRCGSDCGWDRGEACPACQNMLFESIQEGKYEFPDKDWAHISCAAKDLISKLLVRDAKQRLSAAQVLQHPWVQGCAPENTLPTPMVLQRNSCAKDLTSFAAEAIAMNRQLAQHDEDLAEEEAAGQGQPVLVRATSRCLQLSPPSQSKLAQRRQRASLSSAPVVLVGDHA

| Compound | pIC50 |
| --- | --- |
| Cc1cc(N=S(C)(C)=O)cc2ncnc(Nc3ccc(F)cc3OC3CC(O)C3(C)C)c12 (centres unmarked) [Example 1.35] | 8.30 |
| Cc1cc(N=S(C)(C)=O)cc2ncnc(Nc3ccc(F)cc3OC3(C)CCC3)c12 [Example 1.29] | 8.70 |
| CO[C@@H]1CO[C@H]2[C@@H]1OC[C@H]2Oc1cc(F)ccc1Nc1ncnc2cc(N=S(C)(C)=O)cc(OC(F)F)c12 [Example 1.24] | 9.00 |
| CCS(=O)(CC)=Nc1cc(C)c2c(Nc3ccc(F)cc3O[C@H]3CC[C@H](OC)CC3)ncnc2c1 [Example 2.12] | 7.89 |
| Cc1cc(N=S2(=O)CCOCC2)cc2ncnc(Nc3ccc(F)cc3O[C@H]3CCOC3)c12 [Example 2.3] | 8.30 |
| Cc1cc(N=S2(=O)CCC(O)CC2)cc2ncnc(Nc3ccc(F)cc3O[C@@H]3CO[C@@H]4CCO[C@@H]43)c12 (some centres unmarked) [Example 2.94] | 9.00 |
| Cc1cc(N=S(C)(=O)CCc2ccccc2)cc2ncnc(Nc3ccc(F)cc3O[C@H]3CC[C@H](O)CC3)c12 (some centres unmarked) [Example 2.54] | 8.30 |
| Cc1cc(N=S(C)(C)=O)cc2ncnc(Nc3ccc(F)cc3OC3(C)CCOC3)c12 (centres unmarked) [Example 1.32] | 8.15 |
| Cc1cc(N=S(C)(C)=O)cc2ncnc(Nc3ccc(C#N)cc3O[C@H]3CC[C@H](O)CC3)c12 [Example 2.65] | 8.30 |

The remaining compounds from weak to strong by pIC50, led by results:

| pIC50 | Compound |
| --- | --- |
| 7.82 | CCOc1cc(N=S(C)(C)=O)cc2ncnc(Nc3ccc(F)cc3O[C@H]3CC[C@H](OC)CC3)c12 [Example 5.4] |
| 7.96 | CO[C@H]1CC[C@H](Oc2cc(F)ccc2Nc2ncnc3cc(N=S4(=O)CCOCC4)cc(F)c23)CC1 [Example 2.56] |
| 8.22 | Cc1cc(N=S(C)(=O)c2ccccn2)cc2ncnc(Nc3ccc(F)cc3O[C@@H]3CO[C@@H]4CCO[C@@H]43)c12 (some centres unmarked) [Example 2.11] |
| 8.30 | Cc1cc(N=S(C)(=O)c2cccnc2)cc2ncnc(Nc3ccc(F)cc3O[C@H]3CCOC3)c12 (some centres unmarked) [Example 2.102] |
| 8.40 | CO[C@H]1CC[C@H](Oc2cc(F)ccc2Nc2ncnc3cc(N=S4(=O)CCOCC4)cc(C)c23)CC1 [Example 2.17] |
| 8.70 | Cc1cc(N=S(C)(C)=O)cc2ncnc(Nc3ccc(F)cc3O[C@@H]3CO[C@@H]4CCC[C@@H]43)c12 [Example 2.122] |
| 8.70 | Cc1cc(N=S(C)(=O)C(C)C)cc2ncnc(Nc3ccc(F)cc3O[C@@H]3CO[C@@H]4CCO[C@@H]43)c12 (some centres unmarked) [Example 2.109] |

target: MNK1a (Homo sapiens, UniProt Q9BUB5); experiment: MNK1 in vitro kinase assay (assay 2), Z'-LYTE; assay type: biochemical; conditions: compound concentration of 1 μM
Description: B. MNK1 In Vitro Kinase Assay (Assay 2)
MNK1 Data can be obtained from the MNK1 Z′-LYTE® assay. The MNK1 Z′-LYTE® screening protocol and assay conditions are also described on www.invitrogen.com.
The assay is described as follows:
The Z′-LYTE® biochemical assay employs a fluorescence-based, coupled-enzyme format and is based on the differential sensitivity of phosphorylated and non-phosphorylated peptides to proteolytic cleavage. The peptide substrate is labeled with two fluorophores—one at each end—that make up a FRET pair.
In the primary reaction, the kinase transfers the gamma-phosphate of ATP to a single tyrosine, serine or threonine residue in a synthetic FRET-peptide. In the secondary reaction, a site-specific protease recognizes and cleaves non-phosphorylated FRET-peptides. Phosphorylation of FRET-peptides suppresses cleavage by the Development Reagent. Cleavage disrupts FRET between the donor (i.e., coumarin) and acceptor (i.e., fluorescein) fluorophores on the FRET-peptide, whereas uncleaved, phosphorylated FRET-peptides maintain FRET. A ratiometric method, which calculates the ratio (the Emission Ratio) of donor emission to acceptor emission after excitation of the donor fluorophore at 400 nm, is used to quantitate reaction progress, as shown in the equation below. Emission Ratio=Coumarin Emission(445 nm)/Fluorescein Emission(520 nm)
ASSAY SETUP: The inhibition of kinase activity of MNK1a was assessed using pre-activated GST-MNK1a. The 2×MKNK1 (MNK1) mixture is prepared in 50 mM HEPES pH 7.5, 0.01% BRIJ-35, 10 mM MgCl2, 4 mM MnCl2, 1 mM EGTA, 2 mM DTT. The final 10 μL Kinase Reaction consists of 13.5-54 ng MKNK1 (MNK1) and 2 μM Ser/Thr 07 in 50 mM HEPES pH 7.5, 0.01% BRIJ-35, 10 mM MgCl2, 2 mM MnCl2, 1 mM EGTA, 1 mM DTT. After the 1 hour Kinase Reaction incubation, 5 μL of a 1:32768 dilution of Development Reagent A is added.
The Test Compounds are screened in 1% DMSO (final) in the well.
All Peptide/Kinase Mixtures are diluted to a 2× working concentration in the MNK1 Kinase Buffer.
All ATP Solutions are diluted to a 4× working concentration in Kinase Buffer (50 mM HEPES pH 7.5, 0.01% BRIJ-35, 10 mM MgCl2, 1 mM EGTA).
Development Reagent Solution:
The Development Reagent is diluted in Development Buffer
Bar-coded Corning, low volume NBS, 384-well plate (Corning Cat. #3676)
1. 2.5 μL-4× Test Compound
2. 5 μL-2× Peptide/Kinase Mixture
5. 60-minute Kinase Reaction incubation at room temperature
6. 5 μL-Development Reagent Solution
8. 60-minute Development Reaction incubation at room temperature
9. Read on fluorescence plate reader and analyze the data
The following equations are used for each set of data points: […]
Correction for Background Fluorescence: FSample−FITCFl Ctl
Emission Ratio (using values corrected for background fluorescence):Coumarin
Emission (445 nm)/Fluorescein Emission (520 nm)
% Phosphorylation (% Phos): 1−((Emission Ratio×F100%)−C100%)/((C0%−C100%)+[Emission Ratio×(F100%−F0%)])*100 % Inhibition: 1−(% PhosSample/% Phos0% Inhibition Ctl)*100 FI=Fluorescence Intensity C100%=Average Coumarin emission signal of the 100% Phos. Control C0%=Average Coumarin emission signal of the 0% Phos. Control F100%=Average Fluorescein emission signal of the 100% Phos. Control F0%=Average Fluorescein emission signal of the 0% Phos. Control Graphing Software
SelectScreen® Kinase Profiling Service uses XLfit from IDBS. The dose response curve is curve fit to model number 205 (sigmoidal dose-response model).

MNK1a, sequence (Q9BUB5 1-424 isoform Q9BUB5-2): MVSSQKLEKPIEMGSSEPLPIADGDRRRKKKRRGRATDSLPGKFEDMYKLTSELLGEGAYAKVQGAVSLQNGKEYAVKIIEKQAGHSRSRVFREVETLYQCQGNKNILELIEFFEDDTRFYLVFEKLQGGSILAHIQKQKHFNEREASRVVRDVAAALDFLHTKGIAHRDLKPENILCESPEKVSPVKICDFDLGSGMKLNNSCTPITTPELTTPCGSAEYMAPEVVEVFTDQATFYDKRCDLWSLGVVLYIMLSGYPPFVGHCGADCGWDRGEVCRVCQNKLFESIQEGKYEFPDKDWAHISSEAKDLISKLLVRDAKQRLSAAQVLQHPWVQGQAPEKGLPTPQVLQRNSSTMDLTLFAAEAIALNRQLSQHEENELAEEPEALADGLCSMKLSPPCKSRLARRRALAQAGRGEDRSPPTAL

| Compound | inhibition at 1 µM |
| --- | --- |
| Cc1cc(N=S(C)(C)=O)cc2ncnc(Nc3ccc(F)cc3OC3CC(O)C3(C)C)c12 (centres unmarked) [Example 1.35] | 85% |
| Cc1cc(N=S(C)(C)=O)cc2ncnc(Nc3ccc(F)cc3OC3(C)CCC3)c12 [Example 1.29] | 92% |
| CCS(=O)(CC)=Nc1cc(C)c2c(Nc3ccc(F)cc3O[C@H]3CC[C@H](OC)CC3)ncnc2c1 [Example 2.12] | 24% |
| Cc1cc(N=S2(=O)CCOCC2)cc2ncnc(Nc3ccc(F)cc3O[C@H]3CCOC3)c12 [Example 2.3] | 89% |
| Cc1cc(N=S2(=O)CCC(O)CC2)cc2ncnc(Nc3ccc(F)cc3O[C@@H]3CO[C@@H]4CCO[C@@H]43)c12 (some centres unmarked) [Example 2.94] | 98% |
| Cc1cc(N=S(C)(=O)CCc2ccccc2)cc2ncnc(Nc3ccc(F)cc3O[C@H]3CC[C@H](O)CC3)c12 (some centres unmarked) [Example 2.54] | 69% |
| Cc1cc(N=S(C)(C)=O)cc2ncnc(Nc3ccc(C#N)cc3O[C@H]3CC[C@H](O)CC3)c12 [Example 2.65] | 98% |

Second part, the compound after the results:

| inhibition at 1 µM | Compound |
| --- | --- |
| 78% | CCOc1cc(N=S(C)(C)=O)cc2ncnc(Nc3ccc(F)cc3O[C@H]3CC[C@H](OC)CC3)c12 [Example 5.4] |
| 76% | CO[C@H]1CC[C@H](Oc2cc(F)ccc2Nc2ncnc3cc(N=S4(=O)CCOCC4)cc(F)c23)CC1 [Example 2.56] |
| 92% | Cc1cc(N=S(C)(=O)c2ccccn2)cc2ncnc(Nc3ccc(F)cc3O[C@@H]3CO[C@@H]4CCO[C@@H]43)c12 (some centres unmarked) [Example 2.11] |
| 91% | CO[C@H]1CC[C@H](Oc2cc(F)ccc2Nc2ncnc3cc(N=S4(=O)CCOCC4)cc(C)c23)CC1 [Example 2.17] |
| 98% | Cc1cc(N=S(C)(C)=O)cc2ncnc(Nc3ccc(F)cc3O[C@@H]3CO[C@@H]4CCC[C@@H]43)c12 [Example 2.122] |
| 100% | Cc1cc(N=S(C)(=O)C(C)C)cc2ncnc(Nc3ccc(F)cc3O[C@@H]3CO[C@@H]4CCO[C@@H]43)c12 (some centres unmarked) [Example 2.109] |

same assay, conditions: pre-activated GST-MNK1a

| pIC50 | Compound |
| --- | --- |
| 7.74 | CO[C@@H]1CO[C@H]2[C@@H]1OC[C@H]2Oc1cc(F)ccc1Nc1ncnc2cc(N=S(C)(C)=O)cc(OC(F)F)c12 [Example 1.24] |
| 6.88 | Cc1cc(N=S(C)(=O)c2cccnc2)cc2ncnc(Nc3ccc(F)cc3O[C@H]3CCOC3)c12 (some centres unmarked) [Example 2.102] |
| 6.83 | Cc1cc(N=S(C)(C)=O)cc2ncnc(Nc3ccc(F)cc3OC3(C)CCOC3)c12 (centres unmarked) [Example 1.32] |
